Laboratory results taken from patent publication US11752125B2, “Anti-neuroinflammatory and protective compounds in Achillea fragrantissima” (THE STATE OF ISRAEL MINISTRY OF AGRICULTURE & RURAL …, priority 2013, dated 2023).

Legend:
[1] = system: N2a neuronal cells; experiment: Aβ25-35-induced ROS elevation in N2a cells; assay type: cell-based; settings: Aβ25-35 25 μM, 20 hr
Description: 2. Plate N2a cells (10,000 cells/0.2 ml/well of 96 wells plate) in DMEM (high glucose, 225 ml), Opti-MEM (250 mil) containing 5% Fetal Bovine Serum, 2 mM L-Glutamine, 100 U/ml penicillin and 100 micrograms/mL streptomycin and incubate (37° C., 5% CO2) for 24 hr. 3. Replace the medium with a fresh one containing 20 micromolars 2′7′-dichlorofluorescein diacetate (DCF-DA); 4. Incubate 30 min (37° C., 5% CO2); 5. Wash twice with PBS; 6. Replace with fresh medium; 7. Read fluorescence of “time 0” at 485 nm (Extinction) and 528 nm (Emmision). 8. Incubate the cultured cells for 2 hours with freshly diluted TTF or AcA of the invention; 9. Add freshly diluted Aβ25-35 (25 micromolars); 10. Read fluorescence at 20 hr after the addition of Aβ25-35 (25 micromolars) (Ex: 485 nm and Em: 528 nm). 11. A reduction of 70% of ROS levels are indication for an anti-oxidant activity in this assay.
N2a neuronal cells were treated with Aβ25-35 (25 μM) and TTF. ROS levels were measured 20 hr later. The results are shown in FIG. 11 and are the mean±SEM of two different experiments (n=15).
N2a neuronal cells were treated with Aβ25-35 (25 μM) and achillolide A. Cytotoxicity (FIG. 27A) viability (FIG. 27B) and ROS levels (FIG. 27C) were measured 20 hr later. The results are the mean±SEM of two different experiments (n=16).

[2] = system: N2a neuronal cells; experiment: Glutamate-induced ROS elevation in N2a cells; assay type: cell-based; settings: glutamate 100 μM, 20 hr
Description: 1. Plate N2a cells (10,000 cells/0.2 ml/well of 96 wells plate) in DMEM (high glucose, 225 ml), Opti-MEM (250 ml) containing 1% Fetal Bovine Serum, 2 mM L-Glutamine, 100 U/ml penicillin and 100 micrograms/mL streptomycin and incubate (37° C., 5% CO2) for 24 hr. 2. Replace growth medium with a fresh one containing 20 micromolars 2′7′-dichlorofluorescein diacetate (DCF-DA); 3. Incubate 30 min (37° C., 5% CO2); 4. Wash twice with PBS; 5. Replace with fresh medium; 6. Read fluorescence of “time 0” at 485 nm (Extinction) and 528 nm (Emmision). 7. Incubate the cultured cells for 2 hours with freshly diluted TTF or AcA of the invention; 8. Add freshly diluted glutamate (100 micromolars); 9. Read fluorescence at 20 hr after the addition of glutamate (100 micromolars) (Ex: 485 nm and Em: 528 nm). 10. A reduction of 55% of ROS levels are indication for an anti-oxidant activity in this assay.
N2a neuronal cells were treated with glutamate (100 μM) and TTF. ROS levels were measured 20 hr later. The results are shown in FIG. 17 and are the mean±SEM of two different experiments (n=16).
N2a neuronal cells were treated with glutamate (100 μM) and achillolide A. ROS levels were measured 20 hr later. […]
Achillolide A was added to N2a cells before (−2 h, −1 h) concomitant (0) or after (1 h, 2 h) the addition of glutamate. ROS levels were measured 20 h later. […]

[3] = system: CREB; experiment: Aβ25-35-induced CREB phosphorylation in N2a cells (ELISA); assay type: cell-based; settings: concomitant treatment 30 min
Description: 7. Measure the amount of total and phosphorylated CREB in cell lysates of N2a cells, by ELISA using the PathScan total CREB sandwich ELISA kit (Cell Signaling TECHNOLOGY) or the PathScan phosoho-CREB (Ser133) sandwich ELISA kit (Cell Signaling TECHNOLOGY), respectively. 8. Determine the optical density at 450 nm using a microplate reader.
N2a cells were treated concomitantly with Aβ25-35 and TTF for 30 min. Cells were extracted and the levels of phosphorylated (FIG. 15 A) or total (FIG. 15 B) CREB were determined by specific ELISA kits. The results are the mean±SEM of one experiment (n=2).
N2a cells were treated concomitantly with Aβ25-35 and AcA for 30 min. Cells were extracted and the levels of phosphorylated CREB were determined by A specific ELISA kit. The results are the mean±SEM of one experiment (n=2).

[4] = system: LPS-activated splenocytes; experiment: Cytokine secretion from LPS-activated splenocytes (ELISA); assay type: cell-based, mouse; settings: LPS 5 μg/mL; 24 h (IL-2) or 48 hr
Description: 1. Sacrifice Balb/c mice by decapitation. 2. Remove spleens from mice, pool, and squeeze to single cell suspension 3. Lyse red blood cells using lysis buffer, and wash cells several times. 4. Plate splenocytes (5×10^6 cells/well) on a 24-well tissue culture plate, in DMEM containing 10% FBS, 2 mM glutamine, 100 U/ml penicillin and 100 micrograms/mL streptomycin; 5. Treat cells with freshly diluted AcA of the invention; 6. Activate […] with lipopolysaccharide (LPS, 5 micrograms/mL); 7. Collect conditioned media for the measurement of cytokine levels; IL-2, after 24 h; IFNγ, TNF-α, IL-10, IL-12 and IL-6 after 48 hr. 8. Measure the levels of cytokines by ELISA; Ten naive Balb/c mice were sacrificed by decapitation. […] Spleens were removed from mice, pooled and squeezed to single cell suspension. Red blood cells were lysed using lysis buffer, cells were washed several times, and were plated (5×10^6 cells/well/ml) on a 24-well tissue culture plate. Cells were then stimulated with LPS (5 μg/mL) in the presence or absence of achillolide A. Conditioned media of the cells were collected for analysis: IL-2, after 24 h; IFNγ, TNF-α, IL-10, IL-12 and IL-6 after 48 hr. Cytokine levels were measured by ELISA in supernatants collected at the indicated time points. Data represent the mean±SEM from two different experiments performed in duplicates. […]

Compound | effect on Aβ25-35-induced ROS elevation [1] | effect on glutamate-induced ROS elevation [2] | effect on Aβ25-35-induced phosphorylation of CREB [3] | effect on cytokine secretion (IL-2, IFNγ, TNF-α, IL-10, IL-12, IL-6) [4]
COc1cc(-c2oc3cc(OC)c(OC)c(O)c3c(=O)c2O)ccc1O [TTF, 3,5,4′-trihydroxy-6,7,3′-trimethoxyflavone] | prevents the elevation in ROS levels | prevents the elevation in ROS levels | significantly inhibited | 
C=C1CCC2=C(CO)C(=O)O[C@H]2/C=C(\C)[C@H](OC(C)=O)CC1=O [achillolide A] | prevents the elevation in ROS levels | prevents the elevation in ROS levels | down-regulates | Downregulates
